Measured values published in PubChem BioAssay AID2060613 (Molecular Pharmacology Branch, DTP, NCI, 2025).
Blank lines part the entries; values can stand above or below the compound they belong to.

System: 233499-124-R-J3-PDC complex spheroid viability
Assay: Anticancer human tumor 233499-124-R-J3-PDC patient-derived colon adenocarcinoma cell line growth inhibition [CLK]
Conditions: for IC50: curve of first compound; for viability, T/C: stronger effect = lower value
Method in brief: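 Patient-derived tumor cells grown as complex spheroids with HUVEC endothelial cells and mesenchymal stem cells, treated with drug combinations. Concentrations descend in half-log steps from near clinical Cmax, or from 10 microM if Cmax unknown.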

[1] = second compound 0.0316 µM, first compound 0.0316 µM
[2] = second compound 0.0316 µM, first compound 0.1 µM
[3] = second compound 0.0316 µM, first compound 0.316 µM
[4] = second compound 0.0316 µM, first compound 1 µM
[5] = second compound 0.0316 µM, first compound 3.16 µM
[6] = second compound 0.0316 µM, first compound 10 µM
[7] = second compound 0.1 µM, first compound 0.0316 µM
[8] = second compound 0.1 µM, first compound 0.1 µM
[9] = second compound 0.1 µM, first compound 0.316 µM
[10] = second compound 0.1 µM, first compound 1 µM
[11] = second compound 0.1 µM, first compound 3.16 µM
[12] = second compound 0.1 µM, first compound 10 µM
[13] = second compound 0.316 µM, first compound 0.0316 µM
[14] = second compound 0.316 µM, first compound 0.1 µM
[15] = second compound 0.316 µM, first compound 0.316 µM
[16] = second compound 0.316 µM, first compound 1 µM
[17] = second compound 0.316 µM, first compound 3.16 µM
[18] = second compound 0.316 µM, first compound 10 µM
[19] = second compound 1 µM, first compound 0.0316 µM
[20] = second compound 1 µM, first compound 0.1 µM
[21] = second compound 1 µM, first compound 0.316 µM
[22] = second compound 1 µM, first compound 1 µM
[23] = second compound 1 µM, first compound 3.16 µM
[24] = second compound 1 µM, first compound 10 µM
[25] = second compound 3.16 µM, first compound 0.0316 µM
[26] = second compound 3.16 µM, first compound 0.1 µM
[27] = second compound 3.16 µM, first compound 0.316 µM
[28] = second compound 3.16 µM, first compound 1 µM
[29] = second compound 3.16 µM, first compound 3.16 µM
[30] = second compound 3.16 µM, first compound 10 µM
[31] = second compound 10 µM, first compound 0.0316 µM
[32] = second compound 10 µM, first compound 0.1 µM
[33] = second compound 10 µM, first compound 0.316 µM
[34] = second compound 10 µM, first compound 1 µM
[35] = second compound 10 µM, first compound 3.16 µM
[36] = second compound 10 µM, first compound 10 µM
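Also: spheroids exposed to the drug combinations for seven days.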
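For viability, T/C in this document: percent viability relative to DMSO vehicle control wells taken as 100%.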

SMILES: O=C(c1cc(Cc2n[nH]c(=O)c3ccccc23)ccc1F)N1CCN(C(=O)C2CC2)CC1 + CN1CCN(c2cc(C(=O)Nc3cc4cc(-c5cnn(C)c5)ccc4cn3)ccn2)CC1
IC50 (second compound 0.0316 µM): > 10000 nM
IC50 (second compound 0.1 µM): > 10000 nM
IC50 (second compound 0.316 µM): > 10000 nM
IC50 (second compound 1 µM): < 31.6 nM
IC50 (second compound 3.16 µM): < 31.6 nM
IC50 (second compound 10 µM): < 31.6 nM
viability, T/C [1]: 79.9%
viability, T/C [2]: 98.1%
viability, T/C [3]: 96.8%
viability, T/C [4]: 108%
viability, T/C [5]: 99.4%
viability, T/C [6]: 93.2%
viability, T/C [7]: 98.6%
viability, T/C [8]: 105%
viability, T/C [9]: 103%
viability, T/C [10]: 109%
viability, T/C [11]: 110%
viability, T/C [12]: 82.4%
viability, T/C [13]: 103%
viability, T/C [14]: 99.4%
viability, T/C [15]: 103%
viability, T/C [16]: 93.8%
viability, T/C [17]: 96.8%
viability, T/C [18]: 87.1%
viability, T/C [19]: 3.57%
viability, T/C [20]: 2.51%
viability, T/C [21]: 2.71%
viability, T/C [22]: 16.4%
viability, T/C [23]: 3.61%
viability, T/C [24]: 1.27%
viability, T/C [25]: 0.91%
viability, T/C [26]: 0.94%
viability, T/C [27]: 0.75%
viability, T/C [28]: 0.71%
viability, T/C [29]: 0.8%
viability, T/C [30]: 1.09%
viability, T/C [31]: 0.64%
viability, T/C [32]: 0.56%
viability, T/C [33]: 0.6%
viability, T/C [34]: 4.25%
viability, T/C [35]: 0.89%
viability, T/C [36]: 1.84%

IC50 (second compound 0.0316 µM): > 10000 nM
IC50 (second compound 0.1 µM): > 10000 nM
IC50 (second compound 0.316 µM): > 10000 nM
IC50 (second compound 1 µM): > 10000 nM
IC50 (second compound 3.16 µM): > 10000 nM
IC50 (second compound 10 µM): > 10000 nM
SMILES: O=C(c1cc(Cc2n[nH]c(=O)c3ccccc23)ccc1F)N1CCN(C(=O)C2CC2)CC1 + CNC(=O)c1ccc(Nc2nc(OC3CCCC3)c3c(-c4ccc5nc(C)oc5c4)c[nH]c3n2)c(OC)c1
viability, T/C [1]: 96%
viability, T/C [2]: 91.1%
viability, T/C [3]: 93%
viability, T/C [4]: 102%
viability, T/C [5]: 102%
viability, T/C [6]: 95.7%
viability, T/C [7]: 76.7%
viability, T/C [8]: 84.3%
viability, T/C [9]: 71.6%
viability, T/C [10]: 70.1%
viability, T/C [11]: 57.8%
viability, T/C [12]: 55.1%
viability, T/C [13]: 75.6%
viability, T/C [14]: 77.7%
viability, T/C [15]: 78%
viability, T/C [16]: 78%
viability, T/C [17]: 84.1%
viability, T/C [18]: 76.2%
viability, T/C [19]: 67.6%
viability, T/C [20]: 79.6%
viability, T/C [21]: 65.6%
viability, T/C [22]: 71.2%
viability, T/C [23]: 74.4%
viability, T/C [24]: 68.4%
viability, T/C [25]: 80%
viability, T/C [26]: 79.1%
viability, T/C [27]: 75.6%
viability, T/C [28]: 66.7%
viability, T/C [29]: 87.8%
viability, T/C [30]: 59.6%
viability, T/C [31]: 71%
viability, T/C [32]: 85.3%
viability, T/C [33]: 74.8%
viability, T/C [34]: 75.2%
viability, T/C [35]: 65%
viability, T/C [36]: 57.1%

SMILES: Cn1ncnc1[C@H]1c2n[nH]c(=O)c3cc(F)cc(c23)N[C@@H]1c1ccc(F)cc1 + CN1CCN(c2cc(C(=O)Nc3cc4cc(-c5cnn(C)c5)ccc4cn3)ccn2)CC1
IC50 (second compound 0.0316 µM): > 100 nM
IC50 (second compound 0.1 µM): > 100 nM
IC50 (second compound 0.316 µM): > 100 nM
IC50 (second compound 1 µM): < 0.316 nM
IC50 (second compound 3.16 µM): < 0.316 nM
IC50 (second compound 10 µM): < 0.316 nM
viability, T/C (second compound 0.0316 µM, first compound 0.000316 µM): 91.2%
viability, T/C (second compound 0.0316 µM, first compound 0.001 µM): 108%
viability, T/C (second compound 0.0316 µM, first compound 0.00316 µM): 100%
viability, T/C (second compound 0.0316 µM, first compound 0.01 µM): 110%
viability, T/C [1]: 104%
viability, T/C [2]: 92.7%
viability, T/C (second compound 0.1 µM, first compound 0.000316 µM): 100%
viability, T/C (second compound 0.1 µM, first compound 0.001 µM): 105%
viability, T/C (second compound 0.1 µM, first compound 0.00316 µM): 89.5%
viability, T/C (second compound 0.1 µM, first compound 0.01 µM): 97.8%
viability, T/C [7]: 92.1%
viability, T/C [8]: 94.4%
viability, T/C (second compound 0.316 µM, first compound 0.000316 µM): 85.5%
viability, T/C (second compound 0.316 µM, first compound 0.001 µM): 103%
viability, T/C (second compound 0.316 µM, first compound 0.00316 µM): 101%
viability, T/C (second compound 0.316 µM, first compound 0.01 µM): 89.6%
viability, T/C [13]: 92.7%
viability, T/C [14]: 101%
viability, T/C (second compound 1 µM, first compound 0.000316 µM): 19.1%
viability, T/C (second compound 1 µM, first compound 0.001 µM): 2.31%
viability, T/C (second compound 1 µM, first compound 0.00316 µM): 5.38%
viability, T/C (second compound 1 µM, first compound 0.01 µM): 1.23%
viability, T/C [19]: 2.59%
viability, T/C [20]: 0.76%
viability, T/C (second compound 3.16 µM, first compound 0.000316 µM): 0.59%
viability, T/C (second compound 3.16 µM, first compound 0.001 µM): 0.64%
viability, T/C (second compound 3.16 µM, first compound 0.00316 µM): 0.58%
viability, T/C (second compound 3.16 µM, first compound 0.01 µM): 0.53%
viability, T/C [25]: 0.57%
viability, T/C [26]: 0.46%
viability, T/C (second compound 10 µM, first compound 0.000316 µM): 0.41%
viability, T/C (second compound 10 µM, first compound 0.001 µM): 0.43%
viability, T/C (second compound 10 µM, first compound 0.00316 µM): 0.45%
viability, T/C (second compound 10 µM, first compound 0.01 µM): 0.44%
viability, T/C [31]: 0.51%
viability, T/C [32]: 0.56%

SMILES: Nc1ccccc1NC(=O)c1ccc(CNC(=O)OCc2cccnc2)cc1 + CN1CCN(c2cc(C(=O)Nc3cc4cc(-c5cnn(C)c5)ccc4cn3)ccn2)CC1
IC50 (second compound 0.0316 µM): 1690 nM
IC50 (second compound 0.1 µM): 1110 nM
IC50 (second compound 0.316 µM): < 31.6 nM
IC50 (second compound 1 µM): < 31.6 nM
IC50 (second compound 3.16 µM): < 31.6 nM
IC50 (second compound 10 µM): < 31.6 nM
viability, T/C [1]: 96.3%
viability, T/C [2]: 89.9%
viability, T/C [3]: 93.6%
viability, T/C [4]: 80.5%
viability, T/C [5]: 13.5%
viability, T/C [6]: 0.6%
viability, T/C [7]: 89.3%
viability, T/C [8]: 100%
viability, T/C [9]: 80.2%
viability, T/C [10]: 56.6%
viability, T/C [11]: 2.92%
viability, T/C [12]: 0.44%
viability, T/C [13]: 17.7%
viability, T/C [14]: 47.3%
viability, T/C [15]: 2.45%
viability, T/C [16]: 0.63%
viability, T/C [17]: 0.47%
viability, T/C [18]: 0.63%
viability, T/C [19]: 0.46%
viability, T/C [20]: 0.44%
viability, T/C [21]: 0.62%
viability, T/C [22]: 0.56%
viability, T/C [23]: 0.57%
viability, T/C [24]: 1.23%
viability, T/C [25]: 0.65%
viability, T/C [26]: 0.68%
viability, T/C [27]: 0.7%
viability, T/C [28]: 0.66%
viability, T/C [29]: 0.69%
viability, T/C [30]: 0.59%
viability, T/C [31]: 0.18%
viability, T/C [32]: 0.24%
viability, T/C [33]: 0.28%
viability, T/C [34]: 0.28%
viability, T/C [35]: 0.26%
viability, T/C [36]: 0.35%
